Results taken from patent publication US20210253710A1, “DIAGNOSTIC AND THERAPEUTIC METHODS FOR KIDNEY CANCER” (Genentech, Inc., priority 2018, published 2021).
Read-outs that look alike come from different tables or passages of the source. Marks after values point to notes of the source that are not given here.

What was measured:
[1] = tested on: patients with inoperable, locally advanced, or metastatic RCC; test: IMmotion151 Phase III study: efficacy of atezolizumab plus bevacizumab versus sunitinib (ITT and PD-L1+ populations); format: in vivo, human; details: investigator-assessed
Source text: The IMmotion151 study (ClinicalTrials.gov Identifier NCT02420821) is a multi-center, randomized, open-label study to evaluate the efficacy and safety of atezolizumab plus bevacizumab versus sunitinib in patients with inoperable, locally advanced, or metastatic RCC who have not received prior systemic active or experimental therapy in either the adjuvant or metastatic setting. The co-primary endpoints of the study were PFS in the PD-L1^+ subgroup, and OS in the ITT population. The exploratory endpoints included biomarker characterization in sarcomatoid tumors and MSKCC risk subgroups, as well as validation of gene signatures from the IMmotion150 study and their association with PFS. […]
IMmotion151 is a multicenter, randomized, open-label, Phase III study evaluating the efficacy and safety of atezolizumab+bevacizumab vs those of sunitinib in patients with previously untreated, inoperable, locally advanced or metastatic RCC (FIG. 1). The co-primary endpoints were (i) investigator (INV)-assessed progression-free survival (PFS) in patients with ≥1% IC expressing PD-L1 (PD-L1+) and (ii) interim overall survival (OS) in the intent-to-treat (ITT) population. […]

[2] = tested on: patients with metastatic RCC with sarcomatoid histology; test: IMmotion151 subgroup analysis: efficacy in patients whose tumors had sarcomatoid histology; format: in vivo, human; details: for Median OS: clinical cutoff Aug. 13, 2018; for Confirmed INV-assessed ORR / Median INV-assessed PFS: clinical cutoff Sep. 29, 2017
Source text: Sarcomatoid renal carcinoma was defined as any histologic type of renal cell carcinoma containing a focus/foci of high-grade malignant spindle cells of any component relative to the entire tumor area. Such a classification required evidence of epithelial differentiation with concurrent areas of renal cell carcinoma or evidence of epithelial differentiation in the spindle cells with immunohistochemical positivity for keratin or epithelial membrane antigen (EMA). Frequent patterns include fibrosarcoma, malignant fibrous histiocytoma, and rhabdomyosarcoma. Focal spindling due to noncohesion of tumor cells was not considered to represent sarcomatoid differentiation. Any spindle component relative to the entire tumor area was sufficient. The degree of sarcomatoid differentiation was recorded as 1) any component, 2) >20% component, or 3) predominant sarcomatoid component.
(§1) IMmotion151 is a multicenter, randomized, open-label, Phase III study evaluating the efficacy and safety of atezolizumab+bevacizumab vs those of sunitinib in patients with previously untreated, inoperable, locally advanced or metastatic RCC (FIG. 1). The co-primary endpoints were (i) investigator (INV)-assessed progression-free survival (PFS) in patients with ≥1% IC expressing PD-L1 (PD-L1+) and (ii) interim overall survival (OS) in the intent-to-treat (ITT) population. Secondary endpoints inclue INV-assessed PFS and OS in patients with sarcomatoid histology and are reported here with INV-assessed objective response rate (ORR), safety, patient-reported outcomes (PROs) of symptoms and function and biomarker evaluation.
Patients were included in this subgroup analysis if their tumor had any component of sarcomatoid histology, referred to in this presentation as “All Sarc,” as reported by the investigator per the local pathology report. P values are for descriptive purposes only. Gene expression analyses of baseline tumor samples were performed as previously described and focused on T-effector and angiogenesis signatures (see, e.g., McDermott et al. Nat. Med. 24:749-757, 2018). The clinical cutoff for PFS, ORR, PRO and safety was Sep. 29, 2017, with a median follow-up of 13 months. The clinical cutoff for OS was Aug. 13, 2018, with a median follow-up of 17 months.

[3] = tested on: patients with untreated metastatic renal cell carcinoma; test: IMmotion151 PFS analysis in biomarker-evaluable subgroups (Angio and Teff gene signatures, MSKCC risk); format: in vivo, human
Protocol: The MSKCC (Motzer) criteria used were as follows. The risk factors included 1) a Karnofsky Performance Status (KPS) score <80; 2) a corrected serum calcium >10 mg/dL; 3) an LDH level >1.5 times the upper limit of normal; 4) a hemoglobin level <the lower limit of normal; 5) a time from nephrectomy to systemic therapy of […] (an individual also was scored as having this risk factor if they were initially assessed with metastatic disease or if they have had no nephrectomy). The risk stratification was as follows: individuals having 3 risk factors belong to the poor risk subgroup; individuals having 1 or 2 risk factors belong to the intermediate risk subgroup; and individuals having 0 risk factors belong to the favorable group. For study purposes, systemic therapy was designated as the date of initial study screening. The formula for corrected calcium was Corrected calcium=serum calcium (mg/dL)+0.8 (4 […] serum albumin (g/dL)).
In the phase II IMmotion150 study, gene signatures were identified based on association with clinical outcome. The T-effector (“Teff”) signature included CD8a, IFNG, PRF1, EOMES, and CD274. The Angiogenesis (“Angio”) signature included VEGFA, KDR, ESM1, PECAM1, CD34, and ANGPTL4. […] In the IMmotion151 study, a pre-specified analysis of association with PFS was performed. Unstratified HR and log-rank test were used for PFS analyses in biomarker-evaluable patients. The IMmotion151 transcriptome map confirmed biological subgroups identified in […], including the angiogenesis, immune and antigen presentation (including the Teff signature), and myeloid inflammation subgroups (FIG. 4).

[4] = tested on: safety-evaluable patients with locally advanced or metastatic RCC; test: IMmotion151 safety (adverse events, AESI); format: in vivo; details: for Patients with ≥ 1 event: Adrenal insufficiency, All Grades / Patients with ≥ 1 event: Adrenal insufficiency, Grade 3-4 / Patients with ≥ 1 event: Colitis, All Grades / Patients with ≥ 1 event: Colitis, Grade 3-4 / Patients with ≥ 1 event: Hyperthyroidism, All Grades / Patients with ≥ 1 event: Hyperthyroidism, Grade 3-4 / Patients with ≥ 1 event: Hypothyroidism, All Grades / Patients with ≥ 1 event: Hypothyroidism, Grade 3-4 / Patients with ≥ 1 event: Liver function test abnormalities, All Grades / Patients with ≥ 1 event: Liver function test abnormalities, Grade 3-4 / Patients with ≥ 1 event: Pneumonitis, All Grades / Patients with ≥ 1 event: Pneumonitis, Grade 3-4 / Patients with ≥ 1 event: Rash, All Grades / Patients with ≥ 1 event: Rash, Grade 3-4: AESI; for Patients with ≥ 1 event: Any AESI, All Grades / Patients with ≥ 1 event: Any AESI, Grade 3-4: all treatment-emergent AEs
Protocol: Patients in the Atezolizumab+Bevacizumab (“Atezo+Bev”) arm received both atezolizumab and bevacizumab until loss of clinical benefit, unacceptable toxicity or symptomatic deterioration attributed to disease progression, withdrawal of consent, or death, whichever occured first. Atezolizumab was administered at a fixed dose of 1200 milligrams (mg) via intravenous (IV) infusion on Days 1 and 22 of each 42-day cycle. Bevacizumab was be administered at a dose of 15 milligrams per kilogram (mg/kg) via IV infusion on Days 1 and 22 of each 42-day cycle. Patients in the sunitinib arm received sunitinib until loss of clinical benefit, unacceptable toxicity or symptomatic deterioration attributed to disease progression, withdrawal of consent, or death, whichever occured first. Sunitinib was administered at a dose of 50 mg once daily, orally via capsule, on Day 1 through Day 28 of each 42-day cycle.
as §1
Patients were included in this subgroup analysis if their tumor had any component of sarcomatoid histology, referred to in this presentation as “All Sarc,” as reported by the investigator per the local pathology report. P values are for descriptive purposes only. […] The clinical cutoff for PFS, ORR, PRO and safety was Sep. […] The clinical cutoff for OS was Aug.

[5] = tested on: patients with inoperable, locally advanced, or metastatic RCC; details: Rini et al. Lancet 2019, cited from earlier work; for Median OS: clinical cutoff Aug. 13, 2018; for Confirmed INV-assessed ORR / Median INV-assessed PFS: clinical cutoff Sep. 29, 2017
[6] = patients with >20% sarcomatoid component

CCN(CC)CCNC(=O)c1c(C)[nH]c(/C=C2\C(=O)Nc3ccc(F)cc32)c1C [Sunitinib, N-[2-(Diethylamino)ethyl]-5-[(Z)-(5-fluoro-2-oxo-1,2-dihydro-3H-indol-3-ylidene)methyl]-2,4-dimethyl-1H-pyrrole-3-carboxamide]
median PFS ([1]; ITT population): 8.4 months
median PFS ([1]; PD-L1+ patients): 7.7 months
CR ([2]; All Sarc): 3%
Ongoing responses ([2]; All Sarc): 3 n
Median OS ([2]; All Sarc): 15.4 mo
Confirmed INV-assessed ORR ([2]; All Sarc): 14%
Median INV-assessed PFS ([2]; All Sarc): 5.3 mo
CR ([2]; PD-Li + Sarc): 4%
Ongoing responses ([2]; PD-Li + Sarc): 0 n
Median OS ([2]; PD-Li + Sarc): 15.0 mo
Confirmed INV-assessed ORR ([2]; PD-Li + Sarc): 12%
Median INV-assessed PFS ([2]; PD-Li + Sarc): 5.6 mo
CR rate [2, 6]: 0%
ORR [2, 6]: 4%
overall response rate (ORR) ([2]; patients with sarcomatoid differentiation (Example 1)): 18%
Teff gene signature and PFS within the treatment arm ([3]; Teff High versus Low within arm, in words): did not differentiate PFS
PFS in the Angio High subgroup versus the Angio Low subgroup ([3]; within sunitinib arm, in words): improved PFS
PFS HR (95% CI) for Angiogenesis (High versus Low) ([3]; within treatment arm): 0.59 (0.47, 0.75)
Treatment-related AEs ([4]; All Safety Evaluable): 96%
Treatment-related AEs leading to discontinuation of any treatment component ([4]; All Safety Evaluable): 8%
Treatment-related AEs leading to discontinuation of treatment regimen ([4]; All Safety Evaluable): 8%
Treatment-related AEs, Grade 3-4 ([4]; All Safety Evaluable): 54%
Treatment-related deaths ([4]; All Safety Evaluable): 1^e n
Patients with ≥ 1 event: Adrenal insufficiency, All Grades ([4]; All Safety Evaluable): 0%
Patients with ≥ 1 event: Adrenal insufficiency, Grade 3-4 ([4]; All Safety Evaluable): 0%
Patients with ≥ 1 event: Colitis, All Grades ([4]; All Safety Evaluable): <1%
Patients with ≥ 1 event: Colitis, Grade 3-4 ([4]; All Safety Evaluable): <1%
Patients with ≥ 1 event: Hyperthyroidism, All Grades ([4]; All Safety Evaluable): 3%
Patients with ≥ 1 event: Hyperthyroidism, Grade 3-4 ([4]; All Safety Evaluable): 0%
Patients with ≥ 1 event: Hypothyroidism, All Grades ([4]; All Safety Evaluable): 26%
Patients with ≥ 1 event: Hypothyroidism, Grade 3-4 ([4]; All Safety Evaluable): <1%
Patients with ≥ 1 event: Liver function test abnormalities, All Grades ([4]; All Safety Evaluable): 18%
Patients with ≥ 1 event: Liver function test abnormalities, Grade 3-4 ([4]; All Safety Evaluable): 4%
Patients with ≥ 1 event: Pneumonitis, All Grades ([4]; All Safety Evaluable): 0%
Patients with ≥ 1 event: Pneumonitis, Grade 3-4 ([4]; All Safety Evaluable): 0%
Patients with ≥ 1 event: Rash, All Grades ([4]; All Safety Evaluable): 15%
Patients with ≥ 1 event: Rash, Grade 3-4 ([4]; All Safety Evaluable): <1%
Patients with ≥ 1 event: Any AESI, All Grades ([4]; All Safety Evaluable): 72%
Patients with ≥ 1 event: Any AESI, Grade 3-4 ([4]; All Safety Evaluable): 17%
Treatment-related AEs ([4]; Sarc Safety Evaluable): 94%
Treatment-related AEs leading to discontinuation of any treatment component ([4]; Sarc Safety Evaluable): 3%
Treatment-related AEs leading to discontinuation of treatment regimen ([4]; Sarc Safety Evaluable): 3%
Treatment-related AEs, Grade 3-4 ([4]; Sarc Safety Evaluable): 49%
Treatment-related deaths ([4]; Sarc Safety Evaluable): 0 n
Patients with ≥ 1 event: Adrenal insufficiency, All Grades ([4]; Sarc Safety Evaluable): 0%
Patients with ≥ 1 event: Adrenal insufficiency, Grade 3-4 ([4]; Sarc Safety Evaluable): 0%
Patients with ≥ 1 event: Colitis, All Grades ([4]; Sarc Safety Evaluable): 1%
Patients with ≥ 1 event: Colitis, Grade 3-4 ([4]; Sarc Safety Evaluable): 0%
Patients with ≥ 1 event: Hyperthyroidism, All Grades ([4]; Sarc Safety Evaluable): 1%
Patients with ≥ 1 event: Hyperthyroidism, Grade 3-4 ([4]; Sarc Safety Evaluable): 0%
Patients with ≥ 1 event: Hypothyroidism, All Grades ([4]; Sarc Safety Evaluable): 16%
Patients with ≥ 1 event: Hypothyroidism, Grade 3-4 ([4]; Sarc Safety Evaluable): 0%
Patients with ≥ 1 event: Liver function test abnormalities, All Grades ([4]; Sarc Safety Evaluable): 10%
Patients with ≥ 1 event: Liver function test abnormalities, Grade 3-4 ([4]; Sarc Safety Evaluable): 3%
Patients with ≥ 1 event: Pneumonitis, All Grades ([4]; Sarc Safety Evaluable): 0%
Patients with ≥ 1 event: Pneumonitis, Grade 3-4 ([4]; Sarc Safety Evaluable): 0%
Patients with ≥ 1 event: Rash, All Grades ([4]; Sarc Safety Evaluable): 14%
Patients with ≥ 1 event: Rash, Grade 3-4 ([4]; Sarc Safety Evaluable): 0%
Patients with ≥ 1 event: Any AESI, All Grades ([4]; Sarc Safety Evaluable): 66%
Patients with ≥ 1 event: Any AESI, Grade 3-4 ([4]; Sarc Safety Evaluable): 11%
CR ([5]; ITT): 2%
Ongoing responses ([5]; ITT): 90 n
Median OS ([5]; ITT): 34.9 mo
Confirmed INV-assessed ORR ([5]; ITT): 33%
Median INV-assessed PFS ([5]; ITT): 8.4 mo
CR ([5]; PD-L1 + ITT): 4%
Ongoing responses ([5]; PD-L1 + ITT): 34 n
Median OS ([5]; PD-L1 + ITT): 32.7 mo
Confirmed INV-assessed ORR ([5]; PD-L1 + ITT): 35%
Median INV-assessed PFS ([5]; PD-L1 + ITT): 7.7 mo
